“Also recorded” adds a separate entry of the source.
Columns and labels:
[1] = molecular target: T1, C2 domain deleted (ΔC2) SHIP1 enzyme (Mus musculus, UniProt Q9ES52, DEL725-860/G861A/K862A/M863A); assay: In vitro SHIP enzyme assay, C2 domain deleted SHIP1; type: biochemical; details: FIG. 4B, FIG. 10
T1 construct: Full length, wild-type SHIP1 enzyme (wt) or SHIP1 enzyme in which the PH or C2 domains were deleted; made in house; 293T cells are stated only for the wild-type enzyme
T1 sequence (Q9ES52 with tags, fused parts or gaps DEL725-860/G861A/K862A/M863A limits assumed): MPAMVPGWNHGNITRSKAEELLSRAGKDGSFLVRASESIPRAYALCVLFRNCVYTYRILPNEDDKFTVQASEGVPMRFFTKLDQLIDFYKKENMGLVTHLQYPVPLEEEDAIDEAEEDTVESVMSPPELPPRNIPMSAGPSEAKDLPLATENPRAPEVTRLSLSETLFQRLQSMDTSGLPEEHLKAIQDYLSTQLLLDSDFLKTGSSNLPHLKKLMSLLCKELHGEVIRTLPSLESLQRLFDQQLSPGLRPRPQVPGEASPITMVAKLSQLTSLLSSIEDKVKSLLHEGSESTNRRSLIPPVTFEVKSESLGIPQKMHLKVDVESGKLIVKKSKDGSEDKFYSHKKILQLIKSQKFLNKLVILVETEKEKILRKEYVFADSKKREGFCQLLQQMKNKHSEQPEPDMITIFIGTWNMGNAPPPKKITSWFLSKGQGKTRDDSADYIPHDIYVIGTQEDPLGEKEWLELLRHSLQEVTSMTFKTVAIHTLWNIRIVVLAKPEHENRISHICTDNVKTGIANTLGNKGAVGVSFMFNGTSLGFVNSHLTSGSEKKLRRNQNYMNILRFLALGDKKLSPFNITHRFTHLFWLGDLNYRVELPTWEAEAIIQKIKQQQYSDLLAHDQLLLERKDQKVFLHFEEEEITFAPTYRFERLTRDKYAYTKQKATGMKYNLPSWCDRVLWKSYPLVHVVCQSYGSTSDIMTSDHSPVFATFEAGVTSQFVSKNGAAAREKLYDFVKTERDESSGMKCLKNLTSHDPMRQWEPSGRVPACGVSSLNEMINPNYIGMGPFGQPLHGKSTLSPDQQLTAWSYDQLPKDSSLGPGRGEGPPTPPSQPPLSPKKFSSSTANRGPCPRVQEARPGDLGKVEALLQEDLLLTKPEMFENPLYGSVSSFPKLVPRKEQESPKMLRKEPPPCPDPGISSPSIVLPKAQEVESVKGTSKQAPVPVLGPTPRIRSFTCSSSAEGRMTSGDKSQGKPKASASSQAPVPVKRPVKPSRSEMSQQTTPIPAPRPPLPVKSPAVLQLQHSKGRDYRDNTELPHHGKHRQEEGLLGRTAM
Source text: The mouse SHIP1 ΔC2 domain deletion mutant was generated by a standard PCR-based methodology using the primer pairs listed above, which in addition to being complementary to sequences immediately upstream and downstream of the C2 domain (amino acid residues 725 to 863), introduces a NotI restriction site. The PCR-products were digested with ClaI and NotI, and NotI and XbaI for the upstream and downstream fragments, respectively. Products were then resolved and imaged on a 1% agarose gel containing ethidium bromide and the appropriate sized fragments excised and purified using a column gel extraction kit (Qiagen, Mississauga, ON). In parallel, pME18S plasmid containing the cDNA for N-terminal His6-tagged SHIP1 was digested with ClaI and NotI, resolved and purified as before. Upstream fragment, downstream fragment and digested pME18S-SHIP plasmid were ligated to yield a plasmid coding for SHIP1 with the C2 domain deleted. An N-terminal His6 C2 domain was also generated by PCR using the primer pair indicated above and the resulting product inserted into the pET28C bacterial expression vector using EcoRI and NdeI restriction sites.
In vitro SHIP enzyme assay. The SHIP enzyme assay was performed in 96-well microtitre plates with 10 ng of enzyme/well in a total volume of 25 μL of 20 mM Tris HCl, pH 7.5 and 10 mM MgCl2. SHIP1 enzyme was incubated with test extracts (provided in DMSO) or vehicle for 15 mM at 23° C. before the addition of 100 μM inositol-1,3,4,5-tetrakisphosphate (Echelon Biosciences Inc, Salt Lake City, Utah). The reaction was allowed to proceed for 20 min at 37° C. and the amount of inorganic phosphate released assessed by the addition of Malachite Green reagent followed by an absorbance measurement at 650 nm (15). SHIP2 enzyme was purchased from Echelon Biosciences (Salt Lake City, Utah) and an equivalent amount of inositol phosphatase activity was used in the in vitro enzyme assay. Enzyme data are expressed as the mean of triplicates+/−SEM. Experiments were performed at least 3 times.

[2] = test system: DNFB-induced ear inflammation; assay: Mouse acute cutaneous anaphylaxis model; type: in vivo; details: topical
Procedure: Mouse acute cutaneous anaphylaxis model. 6-8 week old CD1 mice (University of British Columbia Animal Facility, Vancouver, BC) were sensitized to the hapten DNP by cutaneous application of 25 μL of 0.5% dinitroflourobenzene (DNFB) (Sigma, Oakville, Ont) in acetone to the shaved abdomen of mice for two consecutive days. In the AQX-016A experiments shown in FIG. 2F, 20 μCi of tritiated thymidine [3H]-Tdr (GE Healthcare, Piscataway, N.J.) was injected EP one week after the first DNFB application. [3H]-Tdr labels rapidly dividing cells of the mouse, including neutrophils (21). […] The resulting inflammatory cell infiltration was quantitated by taking a 6mm diameter punch from the ear 1 hr later for dissolution in SOLVABLE™ (Perkin Elmer-Packard, Woodbridge, Ont) and liquid scintillation counting as described (21). The ability of test substances to inhibit mast cell degranulation was then determined by calculating the ratio of [3H]-Tdr in the test (right) ear vs the control (left) ear as described (21). […]
In the later AQX-MN100 experiments, shown in FIG. 3E, the mice were sensitized as above with DNFB. […] Optical density readings at 450 nm were taken over 10 min at 30 s intervals. MPO activity was calculated as described (22) and expressed as Units per mg of protein per mL of lysate. […]

activation of SHIP1 with C2 domain deleted ([1]; listed as PI(3,4)P2) | Compound | activation of SHIP1 with C2 domain deleted [1] | myeloperoxidase (MPO) levels in ears of allergen-challenged mice ([2]; P-value <0.02 vs vehicle) | allergen-induced inflammation (inflammatory cell recruitment to ear, [3H]-Tdr) ([2]; 30 min prior to DNFB, vs vehicle control-treated ear)
abrogates ability to be activated | phosphatidylinositol-3,4-bisphosphate [PI-3,4-P2, reference compound] | impaired the ability of SHIP1 to be activated | – | –
– | Cc1cc(O)cc2c1[C@]1(C)CC[C@H]3C(C)(C)CCC[C@]3(C)[C@H]1C2 [AQX-MN100] | impaired the ability of SHIP1 to be activated; also recorded: abrogates the ability of SHIP1 to be activated | reduced the levels of the inflammatory cell (neutrophil) specific myeloperoxidase enzyme; also recorded: inhibits DNFB-induced MPO in sensitized mice | –
– | Cc1cc(O)c(O)c2c1[C@]1(C)CC[C@H]3C(C)(C)CCC[C@]3(C)[C@H]1C2 [AQX-016A] | – | – | dramatically inhibited allergen-induced inflammation

From patent US8956824B2, “Methods for identifying allosteric modulators of ship polypeptides” (British Columbia Cancer Agency Branch, priority 2006, dated 2015)
